Test results published in US9340590B2 (priority 2011, dated 2016).
Read-outs that look alike come from different tables or passages of the source. Positions of bridges follow the written chain, without caps; N, C: chain ends. Non-standard residues stand in square brackets, D forms with d. Residues, ends and D or L forms follow the SMILES beside them. Cha = N[C@@H](CC1CCCCC1)C(=O)O

Key:
Test in all cases: cell-based
hNav1.5 = hNav1.5 (Homo sapiens, UniProt Q14524)
hNav1.7 = hNav1.7 (Homo sapiens, UniProt Q15858); type: cell-based
hNav1.3 = hNav1.3 (Homo sapiens, UniProt Q9NY46); settings: IonWorks Quattro, use-dependent protocol, hNav1.3; read-out: IWQ Use Nav1.3
[1] = IonWorks Quattro, use-dependent protocol, hNav1.5, read-out: IWQ Use Nav1.5
[2] = IonWorks Quattro, use-dependent protocol, hNav1.7, read-out: IWQ Use Nav1.7

Chain of hNav1.3 (Q9NY46 whole entry, looked up): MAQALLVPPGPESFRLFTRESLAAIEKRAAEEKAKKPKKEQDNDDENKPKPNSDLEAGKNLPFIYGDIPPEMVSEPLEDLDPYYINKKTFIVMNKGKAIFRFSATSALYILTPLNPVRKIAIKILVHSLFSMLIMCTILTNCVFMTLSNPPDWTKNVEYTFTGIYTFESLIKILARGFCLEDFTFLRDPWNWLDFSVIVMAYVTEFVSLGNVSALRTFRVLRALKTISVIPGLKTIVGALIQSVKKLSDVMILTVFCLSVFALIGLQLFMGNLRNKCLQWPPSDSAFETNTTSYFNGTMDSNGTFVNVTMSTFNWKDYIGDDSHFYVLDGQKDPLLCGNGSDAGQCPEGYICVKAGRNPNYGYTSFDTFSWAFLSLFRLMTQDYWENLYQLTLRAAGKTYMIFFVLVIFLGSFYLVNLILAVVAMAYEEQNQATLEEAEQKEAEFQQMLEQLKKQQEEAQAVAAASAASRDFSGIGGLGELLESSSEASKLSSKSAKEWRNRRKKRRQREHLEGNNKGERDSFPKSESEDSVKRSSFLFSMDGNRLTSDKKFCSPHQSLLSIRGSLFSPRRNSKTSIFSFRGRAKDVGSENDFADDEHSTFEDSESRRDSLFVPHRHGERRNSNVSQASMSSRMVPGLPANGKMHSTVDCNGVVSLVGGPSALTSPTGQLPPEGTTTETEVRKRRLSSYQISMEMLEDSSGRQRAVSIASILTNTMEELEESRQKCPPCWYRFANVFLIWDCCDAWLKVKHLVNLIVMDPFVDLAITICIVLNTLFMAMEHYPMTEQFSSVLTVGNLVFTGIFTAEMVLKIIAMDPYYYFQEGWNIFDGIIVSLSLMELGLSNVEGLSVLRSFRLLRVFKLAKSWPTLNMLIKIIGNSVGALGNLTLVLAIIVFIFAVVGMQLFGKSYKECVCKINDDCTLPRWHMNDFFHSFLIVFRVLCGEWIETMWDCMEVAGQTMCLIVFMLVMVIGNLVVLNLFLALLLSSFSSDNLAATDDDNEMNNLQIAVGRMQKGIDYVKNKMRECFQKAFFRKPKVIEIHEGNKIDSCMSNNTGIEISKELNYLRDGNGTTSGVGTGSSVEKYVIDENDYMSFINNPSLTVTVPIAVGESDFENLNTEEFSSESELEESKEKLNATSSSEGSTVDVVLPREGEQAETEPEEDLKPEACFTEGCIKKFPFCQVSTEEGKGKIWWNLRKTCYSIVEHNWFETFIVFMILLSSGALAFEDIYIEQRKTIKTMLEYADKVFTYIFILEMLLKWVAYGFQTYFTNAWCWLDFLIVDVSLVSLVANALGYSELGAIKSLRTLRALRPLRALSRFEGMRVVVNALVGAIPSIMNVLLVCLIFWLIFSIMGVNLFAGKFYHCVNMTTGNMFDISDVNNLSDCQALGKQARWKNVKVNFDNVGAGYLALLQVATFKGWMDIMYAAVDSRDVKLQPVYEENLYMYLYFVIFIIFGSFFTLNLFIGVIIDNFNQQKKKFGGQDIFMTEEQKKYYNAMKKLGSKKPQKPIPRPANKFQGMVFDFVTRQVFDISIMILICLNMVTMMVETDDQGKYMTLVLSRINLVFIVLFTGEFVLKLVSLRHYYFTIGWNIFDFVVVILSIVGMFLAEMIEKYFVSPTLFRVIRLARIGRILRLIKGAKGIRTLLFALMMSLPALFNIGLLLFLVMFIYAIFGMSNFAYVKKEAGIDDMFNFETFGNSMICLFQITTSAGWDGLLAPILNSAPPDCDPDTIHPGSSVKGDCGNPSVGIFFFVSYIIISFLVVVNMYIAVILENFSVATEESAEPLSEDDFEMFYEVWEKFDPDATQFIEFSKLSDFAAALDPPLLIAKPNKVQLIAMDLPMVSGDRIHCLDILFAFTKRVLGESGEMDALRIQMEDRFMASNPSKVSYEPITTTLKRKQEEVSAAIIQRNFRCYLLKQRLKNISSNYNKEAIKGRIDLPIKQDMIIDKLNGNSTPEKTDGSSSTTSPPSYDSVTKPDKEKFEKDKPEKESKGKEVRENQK
Chain of hNav1.7 (Q15858 whole entry, looked up): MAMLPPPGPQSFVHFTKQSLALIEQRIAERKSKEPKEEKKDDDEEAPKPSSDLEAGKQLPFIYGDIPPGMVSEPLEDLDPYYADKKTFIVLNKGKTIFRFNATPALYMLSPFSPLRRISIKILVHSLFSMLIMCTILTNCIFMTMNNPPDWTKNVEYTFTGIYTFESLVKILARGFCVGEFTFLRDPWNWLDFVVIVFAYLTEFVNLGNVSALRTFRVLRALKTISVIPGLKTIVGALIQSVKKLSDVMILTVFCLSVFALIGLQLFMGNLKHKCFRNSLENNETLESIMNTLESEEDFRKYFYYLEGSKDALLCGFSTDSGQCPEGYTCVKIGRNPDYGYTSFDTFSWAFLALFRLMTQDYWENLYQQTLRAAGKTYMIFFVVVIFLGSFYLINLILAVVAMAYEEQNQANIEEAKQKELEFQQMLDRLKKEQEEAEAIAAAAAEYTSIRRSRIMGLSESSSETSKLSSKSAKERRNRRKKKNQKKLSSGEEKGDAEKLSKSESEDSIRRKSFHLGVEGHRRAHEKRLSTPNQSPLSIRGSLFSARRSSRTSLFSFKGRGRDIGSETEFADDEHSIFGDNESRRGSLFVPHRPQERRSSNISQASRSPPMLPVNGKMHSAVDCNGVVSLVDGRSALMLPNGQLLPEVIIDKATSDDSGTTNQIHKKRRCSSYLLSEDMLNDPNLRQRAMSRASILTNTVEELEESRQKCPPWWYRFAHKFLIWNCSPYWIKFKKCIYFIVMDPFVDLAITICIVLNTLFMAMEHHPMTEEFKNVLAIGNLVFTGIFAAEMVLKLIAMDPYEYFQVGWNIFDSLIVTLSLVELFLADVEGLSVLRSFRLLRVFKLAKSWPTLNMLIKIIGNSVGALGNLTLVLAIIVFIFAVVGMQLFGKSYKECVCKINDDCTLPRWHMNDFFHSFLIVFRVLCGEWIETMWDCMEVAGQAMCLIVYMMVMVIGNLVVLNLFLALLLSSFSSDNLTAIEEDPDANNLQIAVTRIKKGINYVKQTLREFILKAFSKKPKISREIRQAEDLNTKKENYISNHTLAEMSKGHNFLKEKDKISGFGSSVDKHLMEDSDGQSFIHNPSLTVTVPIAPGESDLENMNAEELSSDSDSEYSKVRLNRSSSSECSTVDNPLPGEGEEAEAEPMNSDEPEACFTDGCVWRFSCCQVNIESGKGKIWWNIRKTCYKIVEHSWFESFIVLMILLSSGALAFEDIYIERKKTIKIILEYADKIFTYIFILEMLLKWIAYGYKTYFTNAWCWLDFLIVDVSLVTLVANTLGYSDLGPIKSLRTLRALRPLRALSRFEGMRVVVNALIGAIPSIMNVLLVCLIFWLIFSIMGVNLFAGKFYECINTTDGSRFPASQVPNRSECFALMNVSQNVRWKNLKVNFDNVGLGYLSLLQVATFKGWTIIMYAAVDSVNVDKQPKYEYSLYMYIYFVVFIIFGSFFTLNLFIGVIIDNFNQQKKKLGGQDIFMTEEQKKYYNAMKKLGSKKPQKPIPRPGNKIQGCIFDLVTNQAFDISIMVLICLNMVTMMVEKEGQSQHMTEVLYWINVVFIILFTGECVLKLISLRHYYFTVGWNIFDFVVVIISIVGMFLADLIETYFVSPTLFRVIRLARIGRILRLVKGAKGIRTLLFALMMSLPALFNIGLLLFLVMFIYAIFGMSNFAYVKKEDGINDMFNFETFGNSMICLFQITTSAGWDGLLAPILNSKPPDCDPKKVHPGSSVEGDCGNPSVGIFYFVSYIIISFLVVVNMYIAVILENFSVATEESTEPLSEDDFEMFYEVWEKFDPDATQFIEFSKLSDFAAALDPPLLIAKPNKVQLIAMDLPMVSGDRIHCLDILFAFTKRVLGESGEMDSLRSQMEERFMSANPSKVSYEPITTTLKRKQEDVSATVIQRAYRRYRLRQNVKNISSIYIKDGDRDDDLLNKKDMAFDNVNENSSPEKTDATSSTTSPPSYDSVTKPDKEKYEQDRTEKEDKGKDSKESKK

Structure (SMILES) | IC50 (hNav1.5; [1]) [µM] | IC50 (hNav1.7) [µM] | IC50 (hNav1.3) [µM] | IC50 (hNav1.7; [2]) [µM] | IC50 (hNav1.5; IWQ Use Nav1.5) [µM]
CC[C@H](C)[C@@H]1NC(=O)[C@@H]2CSSC[C@@H]3NC(=O)[C@H](C(C)C)NC(=O)[C@H](CC(C)C)NC(=O)[C@H](CC(N)=O)NC(=O)[C@@H]4CCCN4C(=O)[C@H](CCCNC(=N)N)NC(=O)[C@H](CSSC[C@H](NC(=O)[C@@H](N)CC(=O)O)C(=O)N[C@@H](CC(C)C)C(=O)NCC(=O)N[C@@H](CC4CCCCC4)C(=O)N[C@@H](Cc4ccccc4)C(=O)N[C@@H](CCCNC(=N)N)C(=O)N[C@@H](CCCCN)C(=O)N2)NC(=O)[C@H](CSSC[C@@H](C(=O)N[C@@H](CCCCN)C(=O)N[C@@H](Cc2ccc(O)cc2)C(=O)N[C@H](C(=O)N[C@@H](Cc2ccccc2)C(N)=O)C(C)C)NC(=O)[C@H](Cc2c[nH]c4ccccc24)NC(=O)[C@H](CCCCN)NC(=O)[C@H](Cc2c[nH]cn2)NC(=O)[C@H]([C@@H](C)O)NC(=O)[C@H](CCCNC(=N)N)NC(=O)[C@H](CO)NC3=O)NC(=O)[C@H](CCCCN)NC(=O)[C@H](CC(=O)O)NC(=O)[C@H](CC(N)=O)NC(=O)[C@H](CC(=O)O)NC(=O)[C@@H]2CCCN2C1=O [compound 680] (H-DCLG[Cha]FRKCIPDNDKCCRPNLVCSRTHKWCKYVF-NH2; disulfide 2-17, 9-23, 16-30) | 3.5 | 0.019 | 0.032 | – | –
CC[C@H](C)[C@@H]1NC(=O)[C@@H]2CSSC[C@@H]3NC(=O)[C@H](C(C)C)NC(=O)[C@H](CC(C)C)NC(=O)[C@H](CC(N)=O)NC(=O)[C@@H]4CCCN4C(=O)[C@H](CCCNC(=N)N)NC(=O)[C@H](CSSC[C@H](NC(=O)[C@@H](N)CC(=O)O)C(=O)N[C@@H](CC(C)C)C(=O)NCC(=O)N[C@@H](CC4CCCCC4)C(=O)N[C@@H](CC(C)C)C(=O)N[C@@H](CCCNC(=N)N)C(=O)N[C@@H](CCCCN)C(=O)N2)NC(=O)[C@H](CSSC[C@@H](C(=O)N[C@@H](CCCCN)C(=O)N[C@@H](Cc2ccc(O)cc2)C(=O)N[C@H](C(=O)N[C@@H](Cc2ccccc2)C(N)=O)C(C)C)NC(=O)[C@H](Cc2c[nH]c4ccccc24)NC(=O)[C@H](CCCCN)NC(=O)[C@H](Cc2c[nH]cn2)NC(=O)[C@H]([C@@H](C)O)NC(=O)[C@H](CCCNC(=N)N)NC(=O)[C@H](CO)NC3=O)NC(=O)[C@H](CCCCN)NC(=O)[C@H](CC(=O)O)NC(=O)[C@H](CC(N)=O)NC(=O)[C@H](CC(=O)O)NC(=O)[C@@H]2CCCN2C1=O [compound 681] | > 5 | – | 0.079 | 0.023 | –
CC[C@H](C)[C@@H]1NC(=O)[C@@H]2CSSC[C@@H]3NC(=O)[C@H](C(C)C)NC(=O)[C@H](CC(C)C)NC(=O)[C@H](CC(N)=O)NC(=O)[C@@H]4CCCN4C(=O)[C@H](CCCNC(=N)N)NC(=O)[C@H](CSSC[C@H](NC(=O)[C@@H](N)CC(=O)O)C(=O)N[C@@H](CC(C)C)C(=O)NCC(=O)N[C@@H](Cc4cccs4)C(=O)N[C@@H](CCSC)C(=O)N[C@@H](CCCNC(=N)N)C(=O)N[C@@H](CCCCN)C(=O)N2)NC(=O)[C@H](CSSC[C@@H](C(=O)N[C@@H](CCCCN)C(=O)N[C@@H](Cc2ccc(O)cc2)C(=O)N[C@H](C(=O)N[C@@H](Cc2ccccc2)C(N)=O)C(C)C)NC(=O)[C@H](Cc2c[nH]c4ccccc24)NC(=O)[C@H](CCCCN)NC(=O)[C@H](Cc2c[nH]cn2)NC(=O)[C@H]([C@@H](C)O)NC(=O)[C@H](CCCNC(=N)N)NC(=O)[C@H](CO)NC3=O)NC(=O)[C@H](CCCCN)NC(=O)[C@H](CC(=O)O)NC(=O)[C@H](CC(N)=O)NC(=O)[C@H](CC(=O)O)NC(=O)[C@@H]2CCCN2C1=O [compound 682] | > 5 | – | 0.28 | 0.11 | –
CC[C@H](C)[C@@H]1NC(=O)[C@@H]2CSSC[C@@H]3NC(=O)[C@H](C(C)C)NC(=O)[C@H](CC(C)C)NC(=O)[C@H](CC(N)=O)NC(=O)[C@@H]4CCCN4C(=O)[C@H](CCCNC(=N)N)NC(=O)[C@H](CSSC[C@H](NC(=O)[C@@H](N)CC(=O)O)C(=O)N[C@@H](CC(C)C)C(=O)NCC(=O)N[C@@H](C4CCCC4)C(=O)N[C@@H](CCSC)C(=O)N[C@@H](CCCNC(=N)N)C(=O)N[C@@H](CCCCN)C(=O)N2)NC(=O)[C@H](CSSC[C@@H](C(=O)N[C@@H](CCCCN)C(=O)N[C@@H](Cc2ccc(O)cc2)C(=O)N[C@H](C(=O)N[C@@H](Cc2ccccc2)C(N)=O)C(C)C)NC(=O)[C@H](Cc2c[nH]c4ccccc24)NC(=O)[C@H](CCCCN)NC(=O)[C@H](Cc2cnc[nH]2)NC(=O)[C@H]([C@@H](C)O)NC(=O)[C@H](CCCNC(=N)N)NC(=O)[C@H](CO)NC3=O)NC(=O)[C@H](CCCCN)NC(=O)[C@H](CC(=O)O)NC(=O)[C@H](CC(N)=O)NC(=O)[C@H](CC(=O)O)NC(=O)[C@@H]2CCCN2C1=O [compound 683] | – | – | 0.63 | 0.23 | > 5
CC[C@H](C)[C@@H]1NC(=O)[C@@H]2CSSC[C@@H]3NC(=O)[C@H](C(C)C)NC(=O)[C@H](CC(C)C)NC(=O)[C@H](CC(N)=O)NC(=O)[C@@H]4CCCN4C(=O)[C@H](CCCNC(=N)N)NC(=O)[C@H](CSSC[C@H](NC(=O)[C@@H](N)CC(=O)O)C(=O)N[C@@H](CC(C)C)C(=O)NCC(=O)N[C@@H](C4CCCCC4)C(=O)N[C@@H](CCSC)C(=O)N[C@@H](CCCNC(=N)N)C(=O)N[C@@H](CCCCN)C(=O)N2)NC(=O)[C@H](CSSC[C@@H](C(=O)N[C@@H](CCCCN)C(=O)N[C@@H](Cc2ccc(O)cc2)C(=O)N[C@H](C(=O)N[C@@H](Cc2ccccc2)C(N)=O)C(C)C)NC(=O)[C@H](Cc2c[nH]c4ccccc24)NC(=O)[C@H](CCCCN)NC(=O)[C@H](Cc2cnc[nH]2)NC(=O)[C@H]([C@@H](C)O)NC(=O)[C@H](CCCNC(=N)N)NC(=O)[C@H](CO)NC3=O)NC(=O)[C@H](CCCCN)NC(=O)[C@H](CC(=O)O)NC(=O)[C@H](CC(N)=O)NC(=O)[C@H](CC(=O)O)NC(=O)[C@@H]2CCCN2C1=O [compound 684] | > 5 | – | 0.36 | 0.13 | –
CC[C@H](C)[C@@H]1NC(=O)[C@@H]2CSSC[C@@H]3NC(=O)[C@H](C(C)C)NC(=O)[C@H](CC(C)C)NC(=O)[C@H](CC(N)=O)NC(=O)[C@@H]4CCCN4C(=O)[C@H](CCCNC(=N)N)NC(=O)[C@H](CSSC[C@H](NC(=O)[C@@H](N)CC(=O)O)C(=O)N[C@@H](CC(C)C)C(=O)NCC(=O)N[C@@H](Cc4ccc(C(=O)c5ccccc5)cc4)C(=O)N[C@@H](CCSC)C(=O)N[C@@H](CCCNC(=N)N)C(=O)N[C@@H](CCCCN)C(=O)N2)NC(=O)[C@H](CSSC[C@@H](C(=O)N[C@@H](CCCCN)C(=O)N[C@@H](Cc2ccc(O)cc2)C(=O)N[C@H](C(=O)N[C@@H](Cc2ccccc2)C(N)=O)C(C)C)NC(=O)[C@H](Cc2c[nH]c4ccccc24)NC(=O)[C@H](CCCCN)NC(=O)[C@H](Cc2c[nH]cn2)NC(=O)[C@H]([C@@H](C)O)NC(=O)[C@H](CCCNC(=N)N)NC(=O)[C@H](CO)NC3=O)NC(=O)[C@H](CCCCN)NC(=O)[C@H](CC(=O)O)NC(=O)[C@H](CC(N)=O)NC(=O)[C@H](CC(=O)O)NC(=O)[C@@H]2CCCN2C1=O [compound 685] | > 5 | – | 0.15 | 0.68 | –
CC[C@H](C)[C@@H]1NC(=O)[C@@H]2CSSC[C@@H]3NC(=O)[C@H](C(C)C)NC(=O)[C@H](CC(C)C)NC(=O)[C@H](CC(N)=O)NC(=O)[C@@H]4CCCN4C(=O)[C@H](CCCNC(=N)N)NC(=O)[C@H](CSSC[C@H](NC(=O)[C@@H](N)CC(=O)O)C(=O)N[C@@H](CC(C)C)C(=O)NCC(=O)N[C@@H](Cc4ccc(C)cc4)C(=O)N[C@@H](CCSC)C(=O)N[C@@H](CCCNC(=N)N)C(=O)N[C@@H](CCCCN)C(=O)N2)NC(=O)[C@H](CSSC[C@@H](C(=O)N[C@@H](CCCCN)C(=O)N[C@@H](Cc2ccc(O)cc2)C(=O)N[C@H](C(=O)N[C@@H](Cc2ccccc2)C(N)=O)C(C)C)NC(=O)[C@H](Cc2c[nH]c4ccccc24)NC(=O)[C@H](CCCCN)NC(=O)[C@H](Cc2c[nH]cn2)NC(=O)[C@H]([C@@H](C)O)NC(=O)[C@H](CCCNC(=N)N)NC(=O)[C@H](CO)NC3=O)NC(=O)[C@H](CCCCN)NC(=O)[C@H](CC(=O)O)NC(=O)[C@H](CC(N)=O)NC(=O)[C@H](CC(=O)O)NC(=O)[C@@H]2CCCN2C1=O [compound 686] | – | – | 0.18 | 0.49 | > 5
CC[C@H](C)[C@@H]1NC(=O)[C@@H]2CSSC[C@@H]3NC(=O)[C@H](C(C)C)NC(=O)[C@H](CC(C)C)NC(=O)[C@H](CC(N)=O)NC(=O)[C@@H]4CCCN4C(=O)[C@H](CCCNC(=N)N)NC(=O)[C@H](CSSC[C@H](NC(=O)[C@@H](N)CC(=O)O)C(=O)N[C@@H](CC(C)C)C(=O)NCC(=O)N[C@@H](Cc4ccc(C(C)(C)C)cc4)C(=O)N[C@@H](CCSC)C(=O)N[C@@H](CCCNC(=N)N)C(=O)N[C@@H](CCCCN)C(=O)N2)NC(=O)[C@H](CSSC[C@@H](C(=O)N[C@@H](CCCCN)C(=O)N[C@@H](Cc2ccc(O)cc2)C(=O)N[C@H](C(=O)N[C@@H](Cc2ccccc2)C(N)=O)C(C)C)NC(=O)[C@H](Cc2c[nH]c4ccccc24)NC(=O)[C@H](CCCCN)NC(=O)[C@H](Cc2c[nH]cn2)NC(=O)[C@H]([C@@H](C)O)NC(=O)[C@H](CCCNC(=N)N)NC(=O)[C@H](CO)NC3=O)NC(=O)[C@H](CCCCN)NC(=O)[C@H](CC(=O)O)NC(=O)[C@H](CC(N)=O)NC(=O)[C@H](CC(=O)O)NC(=O)[C@@H]2CCCN2C1=O [compound 687] | – | – | 0.13 | 0.27 | > 5
